Experimental data reported in patent publication US4102918A, “Anionic phenylcarboxamide complement inhibitors” (American Cyanamid Company, priority 1977, dated 1978).
Counter-ions that a name gives are not always drawn.

Key:
Conditions in all cases: activity in wells, two-fold serial dilution assay; higher well number indicates higher activity
activated human C1 = target: T1, activated human C1 (Homo sapiens, UniProt P09871); experiment: Test, Code 026 (C1 inhibitor); assay type: biochemical
T1 construct: fluid-phase C2 cleavage in presence of C4
T1 sequence (P09871 16-688): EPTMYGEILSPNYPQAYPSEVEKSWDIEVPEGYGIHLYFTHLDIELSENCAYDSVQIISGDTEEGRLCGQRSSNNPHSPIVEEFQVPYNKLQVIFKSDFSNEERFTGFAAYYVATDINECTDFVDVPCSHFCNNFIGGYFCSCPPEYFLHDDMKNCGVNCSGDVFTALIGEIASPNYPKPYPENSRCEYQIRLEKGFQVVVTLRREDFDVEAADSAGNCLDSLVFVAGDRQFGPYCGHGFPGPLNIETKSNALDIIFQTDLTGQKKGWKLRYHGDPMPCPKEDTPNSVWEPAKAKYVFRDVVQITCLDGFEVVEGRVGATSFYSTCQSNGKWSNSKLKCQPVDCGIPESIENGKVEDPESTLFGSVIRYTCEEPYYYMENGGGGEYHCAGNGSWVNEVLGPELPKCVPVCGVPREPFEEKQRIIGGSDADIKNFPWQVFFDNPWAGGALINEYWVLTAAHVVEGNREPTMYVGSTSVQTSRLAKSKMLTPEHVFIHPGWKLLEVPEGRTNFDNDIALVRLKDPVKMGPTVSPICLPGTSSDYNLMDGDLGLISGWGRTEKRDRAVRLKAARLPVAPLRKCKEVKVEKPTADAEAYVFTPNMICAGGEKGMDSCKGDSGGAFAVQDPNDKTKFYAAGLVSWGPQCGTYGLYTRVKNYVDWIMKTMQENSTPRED
T1 sequence (P00736 18-705 partner): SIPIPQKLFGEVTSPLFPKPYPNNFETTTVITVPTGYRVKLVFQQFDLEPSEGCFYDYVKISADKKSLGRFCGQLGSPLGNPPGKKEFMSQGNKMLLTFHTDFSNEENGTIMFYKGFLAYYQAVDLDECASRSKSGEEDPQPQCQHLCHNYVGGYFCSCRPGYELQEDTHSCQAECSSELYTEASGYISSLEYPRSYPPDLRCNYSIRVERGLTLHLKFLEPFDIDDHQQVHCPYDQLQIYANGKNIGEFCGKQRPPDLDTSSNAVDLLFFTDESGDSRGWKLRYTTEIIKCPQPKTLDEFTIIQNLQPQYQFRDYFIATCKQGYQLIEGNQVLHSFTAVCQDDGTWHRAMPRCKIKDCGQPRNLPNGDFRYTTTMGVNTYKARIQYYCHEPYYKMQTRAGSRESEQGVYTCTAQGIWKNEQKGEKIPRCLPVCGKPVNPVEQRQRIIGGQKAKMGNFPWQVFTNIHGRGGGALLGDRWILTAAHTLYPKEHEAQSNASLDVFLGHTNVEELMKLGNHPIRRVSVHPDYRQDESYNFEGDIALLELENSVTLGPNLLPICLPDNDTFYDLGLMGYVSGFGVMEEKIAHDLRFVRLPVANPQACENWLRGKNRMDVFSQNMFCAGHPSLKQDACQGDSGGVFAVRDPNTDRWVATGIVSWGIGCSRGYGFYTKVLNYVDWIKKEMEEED
T1 sequence (P02745 23-245 partner): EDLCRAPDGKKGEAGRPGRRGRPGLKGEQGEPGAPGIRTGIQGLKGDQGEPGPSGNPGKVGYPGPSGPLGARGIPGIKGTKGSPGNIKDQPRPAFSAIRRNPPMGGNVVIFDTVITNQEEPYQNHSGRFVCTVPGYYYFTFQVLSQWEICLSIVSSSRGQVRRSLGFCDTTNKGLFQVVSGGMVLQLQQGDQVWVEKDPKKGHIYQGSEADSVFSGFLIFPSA
T1 sequence (P02746 28-253 partner): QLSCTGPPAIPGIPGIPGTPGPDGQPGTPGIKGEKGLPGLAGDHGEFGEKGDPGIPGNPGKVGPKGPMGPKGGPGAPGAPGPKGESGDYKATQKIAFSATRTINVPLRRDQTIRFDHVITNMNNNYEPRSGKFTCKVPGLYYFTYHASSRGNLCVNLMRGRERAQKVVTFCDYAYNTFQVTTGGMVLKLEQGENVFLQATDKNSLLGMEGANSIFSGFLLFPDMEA
T1 sequence (P02747 29-245 partner): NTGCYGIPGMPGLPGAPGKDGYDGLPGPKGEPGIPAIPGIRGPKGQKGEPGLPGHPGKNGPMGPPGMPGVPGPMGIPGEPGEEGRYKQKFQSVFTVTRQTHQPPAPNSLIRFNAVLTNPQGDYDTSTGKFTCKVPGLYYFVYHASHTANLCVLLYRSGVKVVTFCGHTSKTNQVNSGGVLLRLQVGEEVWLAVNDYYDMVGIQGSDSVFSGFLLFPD
Excerpt: (§1) An active inhibitor protects C2 from C1 and C4; (ii) Test, Code 035 (C3-C9 inhibitor) -- This test determines the ability of the late components of human complement (C3-C9) to lyse EAC 142 in the presence of appropriate dilutions of the test compound. An active inhibitor protects EAC 142 from lysis by human C3-C9; (iii) Test, Code 036 (C-shunt inhibitor) -- In this test human erythrocytes rendered fragile are lysed in autologous serum via the shunt pathway activated by cobra venom factor in the presence of appropriate dilutions of the test compound. Inhibition of the shunt pathway results in failure of lysis; (iv) Forssman Vasculitis Test -- Here, the well known complement dependent lesion, Forssman vasculitis, is produced in guinea pigs by intradermal injection of rabbit anti-Forssman antiserum. The lesion is measured in terms of diameter, edema and hemorrhage and the extent to which a combined index of these is inhibited by prior intraperitoneal injection of the test compound at 200 mg/kg is then reported, unless otherwise stated; (v) Forssman Shock Test -- Lethal shock is produced in guinea pigs by an i.v. injection of anti-Forssman antiserum and the harmonic mean death time of treated guinea pigs is compared with that of simultaneous controls; (vi) Complement Level Reduction Test -- In this test, the above dosed guinea pigs, or others, are bled for serum and the complement level is determined in undiluted serum by the capillary tube method of U.S. Pat. No. 3,876,376 and compared to undosed control guinea pigs; and (vii) Cap 50 Test -- Here, appropriate amounts of the test compound are added to a pool of guinea pig serum in vitro, after which the undiluted serum capillary tube assay referred to above is run. The concentration of compound inhibiting 50% is reported.

[1] = system: late components of human complement (C3-C9); experiment: Test, Code 035 (C3-C9 inhibitor), lysis of EAC 142; assay type: biochemical
Excerpt: as §1

shunt pathway = experiment: Test, Code 036 (C-shunt inhibitor), lysis of fragile human erythrocytes in autologous serum, cobra venom factor activated; assay type: cell-based
Excerpt: as §1

Row | Structure (SMILES) | Cl 026 Wells (activated human C1) | C-Late 035 Wells [1] | Shunt Inhibition 036 Wells (shunt pathway)
1 | Nc1cc(C(=O)Nc2cc(C(=O)O)c(O)c(S(=O)(=O)O)c2)cc(C(=O)Nc2cc(C(=O)O)c(O)c(S(=O)(=O)O)c2)c1 [5,5'-[5-Amino-1,3-phenylenebis(carbonylimino)]bis[3-sulfosalicylic acid]disodium salt] | +2 Wells | N | N
2 | O=C(Nc1ccc(O)c(C(=O)O)c1)c1cc(C(=O)Nc2ccc(O)c(C(=O)O)c2)cc([N+](=O)[O-])c1 [5,5'-[5-Nitro-m-phenylenebis(carbonylimino)]disalicylic acid] | α | N | N
3 | O=C(Nc1cc(C(=O)O)c(O)c(S(=O)(=O)O)c1)c1cc(C(=O)Nc2cc(C(=O)O)c(O)c(S(=O)(=O)O)c2)cc([N+](=O)[O-])c1 [5,5'-[(5-Nitro-1,3-phenylene)bis(carbonylimino)]bis[3-sulfosalicylic acid]disodium salt] | +2 Wells | N | N
